Measurements taken from patent US20100173888A1 (Pfizer Inc, priority 2008, published 2010).

molecular target: human recombinant H-PGDS (Homo sapiens, UniProt O60760); assay: Slightly modified fluorescence intensity h-PGDS TBA enzyme assay (1:40,000 enzyme, 40 second reaction, 1/2 log dilutions, top concentration typically 10 μM); format: biochemical; settings: slightly modified assay: 1:40,000 human recombinant H-PGDS
How it was run: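 Enzyme pre-incubated 10 min at room temperature with inhibitor in 100 mM Trizma pH 8.0, 100 μM MgCl2, 0.1 mg/ml rabbit IgG, 2.5 mM glutathione, 0.5% DMSO; reaction started with 5.0 μM PGH2 and stopped with FeCl2/citric acid. Remaining PGH2 quantified as MDA–TBA fluorescence (ex 530/em 560 nm); IC50 from 4-parameter fit, 11 concentrations in duplicate.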

human recombinant H-PGDS, sequence (O60760 whole entry): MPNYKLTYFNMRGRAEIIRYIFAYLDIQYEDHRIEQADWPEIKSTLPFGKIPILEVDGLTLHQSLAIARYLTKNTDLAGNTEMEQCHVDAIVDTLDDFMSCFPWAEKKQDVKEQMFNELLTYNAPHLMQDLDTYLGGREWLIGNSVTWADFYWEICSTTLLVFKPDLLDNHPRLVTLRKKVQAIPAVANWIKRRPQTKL

How did the IC50 turn out when `O=C(N[C@H]1CCC[C@H]1C(=O)O)c1ccc(-c2cccc(F)c2)nc1` [Example 8] was run?
Its IC50 is 1.72 µM.

`O=C(N[C@@H]1CCC[C@H](C(=O)O)C1)c1ccc(-c2cccc(F)c2)nc1` (relative stereo) [Example 27, cis-3-({[6-(3-Fluorophenyl)pyridin-3-yl]carbonyl}amino)cyclohexanecarboxylic acid] was tested. Which IC50 did it give?
Its IC50 is 0.0142 µM.

With `COCCN(C)C1CCC(NC(=O)c2ccc(-c3cccc(F)c3)nc2)CC1` (single isomer, unassigned) [Example 59, 6-(3-Fluorophenyl)-N-{4-[(2-methoxyethyl)(methyl)amino]cyclohexyl}nicotinamide] as the molecule, how does the IC50 read?
Its IC50 is 0.0305 µM.

For `C[C@@H]1CN(C(=O)[C@H]2CC[C@H](NC(=O)c3ccc(-c4cccc(F)c4)nc3)CC2)CCN1` [Example 102, 6-(3-Fluorophenyl)-N-(trans-4-{[(3R)-3-methylpiperazin-1-yl]carbonyl}cyclohexyl)nicotinamide], which IC50 is on record?
The IC50 was 0.00974 µM.
